Tests used:
[1] = system: WT (C57BL/6) and MC-deficient (KitWsh-/-) mice; assay: Rosacea mouse model: intradermal Cath LL-37 in WT and MC-deficient (KitWsh-/-) mice; format: in vivo
Description: (a) Human biopsy samples from healthy and rosacea subjects were assessed for chymase and Mmp-9 mRNA expressions (n=6). (b) Photographs of the rosacea mouse model. 24 hrs after removal of the hair, the back skins of wild type (C57BL/6) and MC-deficient (KitWsh^−/−) mice were injected intradermally with 50 μl of 320 μM Cath LL-37 or filtered PBS twice a day for 2 days. Clinical observation was carried out for 72 hours. (c) Skins from WT, WT MC reconstituted KitWsh^−/− and KitWsh^−/− mice were challenged as indicated and harvested after 72 hours of observation. Mmp-9 mRNA expression in each sample was assessed by RT-PCR. (d) Assessment of MMP protease activities in WT mouse skin following challenge with PBS or the indicated amounts of Cath LL-37. (e) Skin biopsies from WT or KitWsh^−/− mice were analyzed by RT-PCR for the expression of MC proteases at 0, 1, 4, and 24 hrs after Cath LL-37 challenge. Statistics: Mann Whitney test, one-way and two-way ANOVA*p<0.05, **p<0.01, ***p<0.001 (1b-1e: n=3).
(§1) (a) Bone marrow derived mouse MCs were challenged in vitro with 10 ug/mL Cath LL-37 or PBS as indicated. The cells were harvested at different time points and the mRNA was extracted and assessed by RT-PCR for tryptase, chymase and Mmp-9 expression. (b) Cell culture supernatant from bone marrow derived MCs was taken after 24 hrs of Cath LL-37 challenge. MMP and MMP-9 specific activities were measured by assessing cleavage of MMP substrate in the presence or absence of a specific MMP-9 inhibitor, as indicated. (c) Bone marrow derived MCs were treated, as indicated, for 24 hrs before collecting supernatants and assessing degranulation percentage by measuring β-hexosaminidase release. (d) Cultured mouse MCs were challenged with the indicated concentrations of Cath LL-37 for 24 or 48 hrs before supernatants were collected and the amounts of IL-6 secretion were measured. (e) Il-6 mRNA expression was measured by RT-PCR in mouse skin biopsies after 0, 1, 4, and 24 hrs of Cath LL-37 challenge in WT and MC deficient mice, as indicated. Statistics: t-test ***p<0.001 (n=3).
Mast cell deficient (C57BL/6-KitWsh^−/−) mice were bred. KitWsh^−/− mice bearing the W-sash (Wsh) inversion mutation have MC deficiency, but lack anemia and sterility. […] Wild type mice (C57BL/6) were utilized as control. Mice were shaved 24 hrs before intradermal injection with 50 μl of 50 μM or 320 μM of Cath LL-37 or filtered PBS (n=3), twice a day for 2 days and skin biopsies were taken after 72 hours of observation. Total RNA was extracted and purified by RNeasy Mini Kit (QIAGEN science). For the time course observation, skin biopsies of WT and MC deficient mice were taken at 1, 4, and 24 hrs after Cath LL-37 injection.
BMMC reconstitution in KitWsh−/− mice. 4×10^6 cells of C57BL/6 mature BMMCs were diluted in filtered PBS and injected into the shaved back skin of 6 week old C57BL/6− KitWsh^−/− mice (400 μl; 8×50 μl injections) intradermally. After 6 weeks, MCs were confirmed as resident cells in skin by toluidine blue staining.
(§2) Total-MMP activities were determined by following previously reported study (Kanada et al., 2012). To determine MMP-9 activity, MMP-9 specific inhibitor I (Thermo Fisher Scientific, Chicago, IL) was used.
(§3) cDNA was synthesized from RNA using the iScript cDNA Synthesis Kit (BioRad, Hercules, CA) according to the manufacturer's protocol. cDNA was normalized using a NanoDrop spectrophotometer (Thermo Fisher Scientific Inc.). Probes from TagMan Gene Expression Assays (Applied Biosystems ABI, Foster City, CA) were used to analyze gene expressions with following to the manufacturer's instructions. Gapdh mRNA was used as an internal control to validate RNA for each sample. mRNA expression was calculated as the relative expression to Gapdh mRNA, and all data are presented as fold change of each control.
Cath LL-37 was injected intradermally into mast cell deficient mice (KitWsh^−/−) and compared the resulting inflammation with Wild Type (WT) mice. […]

[2] = system: bone marrow derived mouse MCs; assay: In vitro Cath LL-37 challenge of bone marrow derived mouse MCs; format: cell-based
Description: as §1
Primary MCs were generated from mouse bone marrow and cultured as previously written (Wang et al., 2011). MCs were cultured in Stemline® II Hematopoietic Stem Cell Expansion Medium (Sigma-Aldrich).
as §2, §3
Degranulation percentage was assessed by measuring the activity of β-hexosaminidase in the supernatants as previously described (Wang et al., 2012).
ELISA (ELISA MAX™ Deluxe; BioLegend, San Diego, CA) was utilized to determine mouse IL-6 according to the manufacturer's instructions, normalized to total protein content.
To confirm that mast cells are responsive to direct Cath LL-37 stimulation, bone marrow derived mouse MCs were stimulated with different concentrations of Cath LL-37 at different time points. […] MMP-9 protease activity in the culture medium of MCs stimulated with Cath-LL37 for 24 hrs was confirmed by fluorescence enzymatic activity assay using an MMP specific substrate and an MMP-9 specific inhibitor (FIG. 2b).

WT and KitWsh-/- mice = assay: Neuropeptide experiment: intradermal neuropeptide in WT and KitWsh-/- mice, skin mRNA by RT-PCR; format: in vivo, mouse; settings: 100 μL of 1 μM intradermally, 6 hrs
Description: WT and KitWsh^−/− mice were injected with PBS or 100 μL of 1 μM neuropeptide (SP, substance P; ADM-2, adrenomedullin-2; PACAP, pituitary adenylate cyclase-activating peptide) intradermally, as indicated. Skin biopsies were harvested 6 hrs after injection and mRNA expressions of (a) proteases (chymase, tryptase, Mmp-9 and Mmp-1) and (b) proinflammatory cytokines (Cxcl2 and Tnf-α) were assessed by RT-PCR. Statistics: two-way ANOVA*p<0.05, **p<0.01, ***p<0.001 (n=3).
For the neuropeptide experiment, 100 μL of 1 μM neuropeptide or PBS was injected into mice intradermally. Skin biopsies were taken 6 hrs after injection.
as §3
Rosacea flare-ups are frequently initiated by face flushing due to neuronal dysfunction and increased release of pituitary adenylate cyclase-activating peptide (PACAP) (Schwab et al., 2011). To investigate whether neuropeptides (NPs) require MC activation for the development of the inflammatory response in rosacea, 100 μL of 1 μM NP (substance P: SP, adrenomedullin-2: ADM-2, PACAP) was injected intradermally into WT and MC deficient mice. […] Moreover, these same MC enzymes can further increase the levels of free Cath LL-37 and amplify the inflammatory response.

[3] = MC-deficient mice after Cath LL-37
[4] = WT mice, 0, 1, 4, 24 hrs after Cath LL-37
[5] = Cath LL-37 stimulated MCs, at 5 hrs
[6] = Cath LL-37 stimulated MCs, at 5 hrs, p<0.001

Cath LL-37: LL-37 Cathelicidin antimicrobial peptide, C-terminal 37 amino acids of human cathelicidin
clinical end point observation of skin ([1]; KitWsh-/- mice, intradermal Cath LL-37, at 72 hrs): did not develop any rosacea-like features | chymase expression in skin (time course) [1, 3]: not detectable | tryptase expression in skin (time course) [1, 3]: not detectable | IL-6 mRNA expression in skin ([1]; WT mice following Cath LL-37 challenge): Increased | chymase expression in skin (time course) [1, 4]: expressed immediately after injection | tryptase expression in skin (time course) [1, 4]: expressed immediately after injection | MMP activity in skin ([1]; WT mice, 50 μM and 320 μM Cath LL-37 injected): increases in a dose dependent manner | clinical end point observation of skin ([1]; WT mice, intradermal Cath LL-37 twice a day for 2 days, at 72 hrs): rosacea-like inflammation | Mmp-9 mRNA expression in skin from MC deficient mice compared with WT and WT MC-reconstituted KitWsh-/- mice ([1]; after peptide challenge, 72 hours, p<0.01 vs WT, p<0.05 vs reconstituted): significantly lower | IL-6 mRNA expression in skin ([1]; mast cell deficient mice following Cath LL-37 challenge): not in mast cell deficient mice | secreted IL-6 (ELISA) ([2]; 24 and 48 hrs of stimulation, Cath LL-37 20 nM and 40 nM): high levels | Klk5 mRNA expression [2, 5]: not detectable | Klk6 mRNA expression [2, 5]: not detectable | Mmp-1a mRNA expression [2, 5]: not detectable | Mmp-9 mRNA expression [2, 6]: significantly higher | Tryptase mRNA expression [2, 6]: significantly higher | chymase mRNA expression [2, 6]: significantly higher | MMP-9 protease activity in the culture medium ([2]; MCs stimulated with Cath-LL37 for 24 hrs, MMP specific substrate and MMP-9 specific inhibitor): confirmed | MC degranulation (β-hexosaminidase release) ([2]; low concentration of Cath LL-37 (20 nM), supernatants after 24 hrs): able to induce degranulation

pituitary adenylate cyclase-activating peptide [PACAP]
Tnf-a mRNA expression in skin (WT and KitWsh-/- mice; MC deficient mice): not in MC deficient mice | Cxcl2 mRNA expression in skin (WT and KitWsh-/- mice; WT mice, p<0.01): significantly increased | Tnf-a mRNA expression in skin (WT and KitWsh-/- mice; WT mice, p<0.01): significantly increased | Tryptase mRNA expression in skin (WT and KitWsh-/- mice; WT mice, p<0.01): dramatically increased | Chymase mRNA expression in skin (WT and KitWsh-/- mice; WT mice, p<0.05): significantly increased | Mmp-1 mRNA expression in skin (WT and KitWsh-/- mice; WT mice, p<0.05): significantly increased | Mmp-9 mRNA expression in skin (WT and KitWsh-/- mice; WT mice, p<0.05): significantly increased
